Laboratory results published in article PMC9505425, “Targeting of the Mitochondrial TET1 Protein by Pyrrolo[3,2-b]pyrrole Chelators” (International Journal of Molecular Sciences, 2022).
Where “and” joins values, the source holds several entries; their conditions need not be identical. Identical values can stand only once.

Legend:
[1] = MTT cytotoxicity assay, HF-P4; assay type: cell-based, human; conditions: human, HF-P4 normal human dermal fibroblasts, repeats, read-out: Cell viability %
Summary of the method: (§1)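 Cells seeded at 1.0 × 10^5 per well, grown 24 h, then exposed 48 h to compounds at 0.1–20 μM (DMSO ≤1%). MTT added for 2 h, formazan dissolved in DMSO, absorbance read at 570 nm. IC50 calculated relative to untreated cells (100%).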

HF-P4 cells = test: MTT cytotoxicity assay, HF-P4; assay type: cell-based, human; conditions: 48 h; for Cell viability %: repeats
Summary of the method: as §1

H-1299 cells = test: MTT cytotoxicity assay, H-1299; assay type: cell-based, human
Summary of the method: (§2)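 Cells seeded at 1.0 × 10^5/well, grown 24 h, then exposed 48 h to compounds at 0.1–20 μM (≤1% DMSO); U118-MG in DMEM, H1299 in RPMI 1640, both with 10% FBS, 37 °C. MTT 2 h, formazan in DMSO read at 570 nm; IC50 relative to untreated cells (100%).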

U-118 MG cells = test: MTT cytotoxicity assay, U-118 MG; assay type: cell-based, human; conditions: 48 h
Summary of the method: as §2

In the case of Cc1ccc(-n2c(-c3ccc(C(=O)N/N=C/c4ccccc4O)cc3)cc3c2cc(-c2ccc(C(=O)N/N=C/c4ccccc4O)cc2)n3-c2ccc(C)cc2)cc1 [Compound 6], the viability at 48 h, 0.5 µM ([1]; HF-P4, 500 nM) is reported as 103%, the viability at 48 h, 0.75 µM ([1]; HF-P4, 750 nM) is reported as 97.8% and the viability at 48 h, 1 µM ([1]; HF-P4, 1 uM) is reported as 84.4%. It also gave a viability at 48 h, 2.5 µM ([1]; HF-P4, 2.5 uM) of 94.5%, a viability at 48 h, 5 µM ([1]; HF-P4, 5 uM) of 84.3% and a viability at 48 h, 7.5 µM ([1]; HF-P4, 7.5 uM) of 62.3%. It also gave a viability at 48 h, 10 µM ([1]; HF-P4, 10 uM) of 66.1%, a viability at 48 h, 15 µM ([1]; HF-P4, 15 uM) of 62.5% and a viability at 48 h, 20 µM ([1]; HF-P4, 20 uM) of 48%. The Cell viability % (HF-P4 cells; HF-P4, 100 nM, 0.1 µM) was 114.4851% and 90.24% and 95.4%, the Cell viability % (HF-P4 cells; HF-P4, 500 nM, 0.5 µM) was 95.79% and 101.8289% and the Cell viability % (HF-P4 cells; HF-P4, 750 nM, 0.75 µM) was 92.17% and 90.68%. For the same molecule, the Cell viability % (HF-P4 cells; HF-P4, 1 uM, 1 µM) was 84.11% and 85.78%, the Cell viability % (HF-P4 cells; HF-P4, 2.5 uM, 2.5 µM) was 75.58% and 74.71% and the Cell viability % (HF-P4 cells; HF-P4, 5 uM, 5 µM) was 73.0472% and 65.6%. For the same molecule, the Cell viability % (HF-P4 cells; HF-P4, 7.5 uM, 7.5 µM) was 61.49% and 69.35%, the Cell viability % (HF-P4 cells; HF-P4, 10 uM, 10 µM) was 61.41% and 64.7001% and the Cell viability % (HF-P4 cells; HF-P4, 15 uM, 15 µM) was 54.9% and 58.15%. The Cell viability % (HF-P4 cells; HF-P4, 20 uM, 20 µM) was 42.62% and 43.54%, the IC50 (HF-P4 cells; Homo sapiens, MTT) was 16.4 µM and the Cell viability % (H-1299 cells; H-1299, 100 nM, 48 h, repeats, 0.1 µM) was 77.16% and 73.27%. The Cell viability % (H-1299 cells; H-1299, 500 nM, 48 h, repeats, 0.5 µM) was 69.88% and 74.98%, the Cell viability % (H-1299 cells; H-1299, 750 nM, 48 h, repeats, 0.75 µM) was 83.61% and 74.75% and the Cell viability % (H-1299 cells; H-1299, 1 uM, 48 h, repeats, 1 µM) was 86.38% and 69.89% and 61.2%. The Cell viability % (H-1299 cells; H-1299, 2.5 uM, 48 h, repeats, 2.5 µM) was 77.45% and 63.25% and 56.68%, the Cell viability % (H-1299 cells; H-1299, 5 uM, 48 h, repeats, 5 µM) was 69.4% and 77.63% and 53.79% and the Cell viability % (H-1299 cells; H-1299, 7.5 uM, 48 h, repeats, 7.5 µM) was 53.98% and 50.36%. For the same molecule, the Cell viability % (H-1299 cells; H-1299, 10 uM, 48 h, repeats, 10 µM) was 52.11% and 46.79%, the Cell viability % (H-1299 cells; H-1299, 15 uM, 48 h, repeats, 15 µM) was 36.42% and 29.24% and the Cell viability % (H-1299 cells; H-1299, 20 uM, 48 h, repeats, 20 µM) was 33.42% and 31.6%. The viability at 0.1 µM (H-1299 cells; Homo sapiens, NCI-H1299, 48 h, H-1299, 100 nM, repeats, read-out: Cell viability %) was 74.6%, the viability at 0.5 µM (H-1299 cells; Homo sapiens, NCI-H1299, 48 h, H-1299, 500 nM, repeats, read-out: Cell viability %) was 82% and the viability at 0.75 µM (H-1299 cells; Homo sapiens, NCI-H1299, 48 h, H-1299, 750 nM, repeats, read-out: Cell viability %) was 90.2%. For the same molecule, the viability at 7.5 µM (H-1299 cells; Homo sapiens, NCI-H1299, 48 h, H-1299, 7.5 uM, repeats, read-out: Cell viability %) was 63.7%, the viability at 10 µM (H-1299 cells; Homo sapiens, NCI-H1299, 48 h, H-1299, 10 uM, repeats, read-out: Cell viability %) was 54.8% and the viability at 15 µM (H-1299 cells; Homo sapiens, NCI-H1299, 48 h, H-1299, 15 uM, repeats, read-out: Cell viability %) was 38.7%. For the same molecule, the viability at 20 µM (H-1299 cells; Homo sapiens, NCI-H1299, 48 h, H-1299, 20 uM, repeats, read-out: Cell viability %) was 34.4%, the IC50 (H-1299 cells; Homo sapiens, NCI-H1299, MTT, 48 h) was 14.6 µM and the viability at 0.1 µM (U-118 MG cells; Homo sapiens, U-118-MG, U-118 MG, 100 nM, repeats, read-out: Cell viability %) was 98.1%. The viability at 0.5 µM (U-118 MG cells; Homo sapiens, U-118-MG, U-118 MG, 500 nM, repeats, read-out: Cell viability %) was 73.5%, the viability at 0.75 µM (U-118 MG cells; Homo sapiens, U-118-MG, U-118 MG, 750 nM, repeats, read-out: Cell viability %) was 67.2% and the viability at 1 µM (U-118 MG cells; Homo sapiens, U-118-MG, U-118 MG, 1 uM, repeats, read-out: Cell viability %) was 68.4%. For the same molecule, the viability at 2.5 µM (U-118 MG cells; Homo sapiens, U-118-MG, U-118 MG, 2.5 uM, repeats, read-out: Cell viability %) was 63%, the viability at 5 µM (U-118 MG cells; Homo sapiens, U-118-MG, U-118 MG, 5 uM, repeats, read-out: Cell viability %) was 59% and the viability at 7.5 µM (U-118 MG cells; Homo sapiens, U-118-MG, U-118 MG, 7.5 uM, repeats, read-out: Cell viability %) was 45.9%. The viability at 10 µM (U-118 MG cells; Homo sapiens, U-118-MG, U-118 MG, 10 uM, repeats, read-out: Cell viability %) was 49.6%, the viability at 15 µM (U-118 MG cells; Homo sapiens, U-118-MG, U-118 MG, 15 uM, repeats, read-out: Cell viability %) was 28% and the viability at 20 µM (U-118 MG cells; Homo sapiens, U-118-MG, U-118 MG, 20 uM, repeats, read-out: Cell viability %) was 22.5%. For the same molecule, the IC50 (U-118 MG cells; Homo sapiens, U-118-MG, MTT) was 8.12 µM, the Cell viability % (U-118 MG cells; U-118 MG, 100 nM, repeats, 0.1 µM) was 91.37% and 92.92% and the Cell viability % (U-118 MG cells; U-118 MG, 500 nM, repeats, 0.5 µM) was 83.7778% and 86.55%. The Cell viability % (U-118 MG cells; U-118 MG, 750 nM, repeats, 0.75 µM) was 73.07% and 81.93%, the Cell viability % (U-118 MG cells; U-118 MG, 1 uM, repeats) was 80.41% and 81.53% and the Cell viability % (U-118 MG cells; U-118 MG, 2.5 uM, repeats) was 69.75% and 76.68%. For the same molecule, the Cell viability % (U-118 MG cells; U-118 MG, 5 uM, repeats) was 63.22% and 58.23%, the Cell viability % (U-118 MG cells; U-118 MG, 7.5 uM, repeats) was 45.4% and 56.877% and the Cell viability % (U-118 MG cells; U-118 MG, 10 uM, repeats) was 51.17% and 52.19%. The Cell viability % (U-118 MG cells; U-118 MG, 15 uM, repeats) was 29.06% and 32.78%, the Cell viability % (U-118 MG cells; U-118 MG, 20 uM, repeats) was 18.64% and 22.51% and the melting point was 332 to 333 °C.
